# Test system: tetanus toxoid vaccine
# Assay: PNPi as adjuvant in tetanus toxoid vaccine efficacy study (tetanus toxoid mouse model)
# Type: in vivo, mice
# Conditions: compared to vehicle treated group
# Experimental: This Example Evaluates PNPi as an Adjuvant in Tetanus Toxoid Vaccine Efficacy Study.
# Method: Tetanus toxoid (TT) was used to vaccinate mice thrice, two weeks apart. Mice were treated by oral administration of compounds NTR001 and NTR002 and serum was collected at various time points for antibody titer and interferon-g analysis. Mice in Groups 2-6 (Table 2) are vaccinated subcutaneously with 0.1 ml tetanus toxoid vaccine on DAYS 0, 14 and 28. Mice in Group 1 (Table 1) received no vaccine. Antibody titers for DAYS 38 are determined by ELISA using tetanus toxoid coated microtiter plates and anti-mouse conjugate. Sera from DAY 30 are assayed by ELISA for interferon-g.
smiles,measurement,setting,value
"O=c1[nH]cnc2c([C@@H]3N[C@H](CO)[C@@H](O)[C@H]3O)c[nH]c12 [NTR001, 7-[(2S,3S,4R,5R)-3,4-dihydroxy-5-(hydroxymethyl)-2-pyrrolidinyl]-1,5-dihyro-4-H-pyrrolo-[3,2-d]pyrimidin-4-one]",serum interferon-g levels,"day 30, ELISA, high dose group 60 mg/kg p.o., FIG. 4",elevated
same,serum tetanus toxoid antibody titers,"day 38, ELISA, p.o. 30 mg/kg (6 days of treatment) and 60 mg/kg (3 days of treatment), FIG. 3",significantly elevated

# Reference: patent publication US20170209447A1, “Use of PNP Inhibitor to Treat Relapse of Malignancy after Hematopoietic Stem Cell Transplant” (Nitor Therapeutics, priority 2014, published 2017)
